From ChEMBL document CHEMBL1156365, “Polyacetylene carboxylic acids from Mitrephora celebica” (2001)
In brackets after ≈: the same amount, converted by molar mass.

Tests used:
[1] = system: Mycolicibacterium smegmatis; assay: Antibacterial activity against Mycobacterium smegmatis; assay type: functional
Staphylococcus aureus = assay: Antibacterial activity against methicillin-resistant Staphylococcus aureus by NCCLS M7-A4 method; assay type: functional

Compound `C=CCC/C=C/C#CC#CCCCCCCCC(=O)O` has an MIC [1] of 12.5 µg/mL (≈ 45.9 µM) and an MIC (Staphylococcus aureus) of 25 µg/mL (≈ 91.8 µM).

With `NNC(=O)c1ccncc1` [ISONIAZID] the MIC [1] was 0.8 µg/mL (≈ 5.83 µM).

Compound `C=CCCC#CC#CC#CCCCCCCCC(=O)O` [OROPHEIC ACID] has an MIC [1] of 12.5 µg/mL (≈ 46.2 µM) and an MIC (Staphylococcus aureus) of 12.5 µg/mL (≈ 46.2 µM).

For `CN[C@H](CC(C)C)C(=O)N[C@H]1C(=O)N[C@@H](CC(N)=O)C(=O)N[C@H]2C(=O)N[C@H]3C(=O)N[C@H](C(=O)N[C@H](C(=O)O)c4cc(O)cc(O)c4-c4cc3ccc4O)[C@H](O)c3ccc(c(Cl)c3)Oc3cc2cc(c3O[C@@H]2O[C@H](CO)[C@@H](O)[C@H](O)[C@H]2O[C@H]2C[C@](C)(N)[C@H](O)[C@H](C)O2)Oc2ccc(cc2Cl)[C@H]1O` [VANCOMYCIN], the MIC (Staphylococcus aureus) was 0.8 µg/mL (≈ 0.552 µM).
